From patent US12539292B2, “BRM targeting compounds and associated methods of use” (Arvinas Operations, Inc., priority 2018, dated 2026)
Where two headings read alike, the source gives them in different places.

Target: T1, BRM (Homo sapiens, UniProt P51531)
T1 construct: In-Cell Western Screen of BRM Degradation in SW1573 Cells; endogenous in cells; host or cells: SW1573
Assay: In-cell Western screen of BRM degradation in SW1573 cells (Dmax and DC50)
Assay type: cell-based
Details: BRM degradation, SW1573 cells; for DC50: read-out: DC50; for Dmax: read-out: Dmax (%) (% degraded)
Outline: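 Adherent SW1573 cultures exposed to test compounds for 18-20 h were processed for in-cell Western after PFA fixation and detergent permeabilization. BRM degradation was reported as Dmax and DC50.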

[1] = when tested at the top concentration of between 0.3 and 10 μM
[2] = tested at the top concentration of between 0.3 and 10 μM

T1 sequence (P51531 whole entry): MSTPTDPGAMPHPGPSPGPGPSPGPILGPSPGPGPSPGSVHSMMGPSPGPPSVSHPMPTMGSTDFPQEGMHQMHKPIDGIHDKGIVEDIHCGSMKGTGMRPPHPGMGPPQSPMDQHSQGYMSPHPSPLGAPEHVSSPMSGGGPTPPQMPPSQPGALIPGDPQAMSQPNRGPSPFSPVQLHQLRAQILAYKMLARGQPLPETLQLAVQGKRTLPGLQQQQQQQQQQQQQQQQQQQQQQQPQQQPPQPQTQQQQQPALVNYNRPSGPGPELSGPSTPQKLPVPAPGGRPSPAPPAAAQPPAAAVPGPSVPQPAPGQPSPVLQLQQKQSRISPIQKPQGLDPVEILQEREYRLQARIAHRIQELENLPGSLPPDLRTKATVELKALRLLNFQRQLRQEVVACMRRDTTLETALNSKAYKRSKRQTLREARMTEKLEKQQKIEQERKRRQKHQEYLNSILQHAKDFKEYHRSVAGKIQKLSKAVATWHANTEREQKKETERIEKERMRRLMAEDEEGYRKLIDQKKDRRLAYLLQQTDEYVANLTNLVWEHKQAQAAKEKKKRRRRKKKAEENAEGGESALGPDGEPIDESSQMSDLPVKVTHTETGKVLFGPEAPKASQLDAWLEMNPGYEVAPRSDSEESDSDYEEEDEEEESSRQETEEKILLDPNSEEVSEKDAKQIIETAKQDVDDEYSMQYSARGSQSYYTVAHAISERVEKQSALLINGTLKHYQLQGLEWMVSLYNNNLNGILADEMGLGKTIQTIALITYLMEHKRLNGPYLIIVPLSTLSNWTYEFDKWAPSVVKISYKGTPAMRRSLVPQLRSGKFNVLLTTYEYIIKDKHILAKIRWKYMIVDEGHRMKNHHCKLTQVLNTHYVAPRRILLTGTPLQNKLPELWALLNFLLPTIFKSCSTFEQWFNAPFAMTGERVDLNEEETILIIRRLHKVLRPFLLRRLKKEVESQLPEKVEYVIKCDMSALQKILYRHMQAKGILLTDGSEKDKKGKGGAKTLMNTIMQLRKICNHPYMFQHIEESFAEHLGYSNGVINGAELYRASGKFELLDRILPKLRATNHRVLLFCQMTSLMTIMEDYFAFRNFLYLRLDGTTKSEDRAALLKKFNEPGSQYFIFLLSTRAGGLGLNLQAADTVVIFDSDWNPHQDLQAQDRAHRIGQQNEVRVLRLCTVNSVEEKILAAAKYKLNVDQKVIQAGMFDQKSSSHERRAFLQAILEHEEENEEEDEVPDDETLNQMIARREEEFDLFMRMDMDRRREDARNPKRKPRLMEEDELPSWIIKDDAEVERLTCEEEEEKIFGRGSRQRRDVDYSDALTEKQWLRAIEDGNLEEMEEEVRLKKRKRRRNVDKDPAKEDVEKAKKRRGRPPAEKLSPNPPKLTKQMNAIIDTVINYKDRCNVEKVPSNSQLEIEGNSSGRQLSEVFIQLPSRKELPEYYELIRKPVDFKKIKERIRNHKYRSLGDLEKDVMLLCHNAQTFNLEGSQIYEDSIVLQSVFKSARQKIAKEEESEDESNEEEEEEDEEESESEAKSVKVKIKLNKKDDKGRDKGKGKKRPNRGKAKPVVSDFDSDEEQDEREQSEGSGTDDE

Row | SMILES | DC50 [nM] | Dmax [1] [%] | Dmax [2] [%]
1 | Cc1ncsc1-c1ccc([C@H](C)NC(=O)[C@@H]2C[C@@H](O)CN2C(=O)[C@@H](c2cc(OCCN3C[C@H]4C[C@@H]3CN4CCOc3cc(N4C5CCC4CN(c4cc(-c6ccccc6O)nnc4N)C5)ccn3)no2)C(C)C)cc1 [compound 136, (2S,4R)-1-((2R)-2-(3-(2-((1R,4R)-5-(2-((4-(3-(3-amino-6-(2-hydroxyphenyl)pyridazin-4-yl)-3,8-diazabicyclo[3.2.1]octan-8-yl)pyridin-2-yl)oxy)ethyl)-2,5-diazabicyclo[2.2.1]heptan-2-yl)ethoxy)isoxazol-5-yl)-3-methylbutanoyl)-4-hydroxy-N-((S)-1-(4-(4-methylthiazol-5-yl)phenyl)ethyl)pyrrolidine-2-carboxamide] | < 2.5 | > 75 | 
2 | Cc1ncsc1-c1ccc([C@H](C)NC(=O)[C@@H]2C[C@@H](O)CN2C(=O)[C@@H](c2cc(OCCN3CCN(CCOc4cc(N5C6CCC5CN(c5cc(-c7ccccc7O)nnc5N)C6)ccn4)[C@H](C)C3)no2)C(C)C)cc1 [compound 139, (2S,4R)-1-((2R)-2-(3-(2-((3R)-4-(2-((4-(3-(3-amino-6-(2-hydroxyphenyl)pyridazin-4-yl)-3,8-diazabicyclo[3.2.1]octan-8-yl)pyridin-2-yl)oxy)ethyl)-3-methylpiperazin-1-yl)ethoxy)isoxazol-5-yl)-3-methylbutanoyl)-4-hydroxy-N-((S)-1-(4-(4-methylthiazol-5-yl)phenyl)ethyl)pyrrolidine-2-carboxamide] | < 2.5 | > 75 | 
3 | Cc1ncsc1-c1ccc([C@H](C)NC(=O)[C@@H]2C[C@@H](O)CN2C(=O)[C@@H](c2cc(OCCN3CCN(CCOc4cc(N5C6CCC5CN(c5cc(-c7ccccc7O)nnc5N)C6)ccn4)[C@@H](C)C3)no2)C(C)C)cc1 [compound 140, (2S,4R)-1-((2R)-2-(3-(2-((3S)-4-(2-((4-(3-(3-amino-6-(2-hydroxyphenyl)pyridazin-4-yl)-3,8-diazabicyclo[3.2.1]octan-8-yl)pyridin-2-yl)oxy)ethyl)-3-methylpiperazin-1-yl)ethoxy)isoxazol-5-yl)-3-methylbutanoyl)-4-hydroxy-N-((S)-1-(4-(4-methylthiazol-5-yl)phenyl)ethyl)pyrrolidine-2-carboxamide] | < 2.5 | > 75 | 
4 | Cc1ncsc1-c1ccc([C@H](C)NC(=O)[C@@H]2C[C@@H](O)CN2C(=O)[C@@H](c2cc(OCCN3CCN(CCOc4cc(N5C6CCC5CN(c5cc(-c7ccccc7O)nnc5N)C6)ccn4)C[C@@H]3C)no2)C(C)C)cc1 [compound 141, (2S,4R)-1-((2R)-2-(3-(2-((2S)-4-(2-((4-(3-(3-amino-6-(2-hydroxyphenyl)pyridazin-4-yl)-3,8-diazabicyclo[3.2.1]octan-8-yl)pyridin-2-yl)oxy)ethyl)-2-methylpiperazin-1-yl)ethoxy)isoxazol-5-yl)-3-methylbutanoyl)-4-hydroxy-N-((S)-1-(4-(4-methylthiazol-5-yl)phenyl)ethyl)pyrrolidine-2-carboxamide] | < 2.5 | > 75 | 
5 | Cc1ncsc1-c1ccc([C@H](C)NC(=O)[C@@H]2C[C@@H](O)CN2C(=O)[C@@H](c2cc(OCCN3CCN(CCOc4cc(N5C6CCC5CN(c5cc(-c7ccccc7O)nnc5N)C6)ccn4)C[C@H]3C)no2)C(C)C)cc1 [compound 142, (2S,4R)-1-((2R)-2-(3-(2-((2R)-4-(2-((4-(3-(3-amino-6-(2-hydroxyphenyl)pyridazin-4-yl)-3,8-diazabicyclo[3.2.1]octan-8-yl)pyridin-2-yl)oxy)ethyl)-2-methylpiperazin-1-yl)ethoxy)isoxazol-5-yl)-3-methylbutanoyl)-4-hydroxy-N-((S)-1-(4-(4-methylthiazol-5-yl)phenyl)ethyl)pyrrolidine-2-carboxamide] | < 2.5 | > 75 | 
6 | Cc1ncsc1-c1ccc([C@H](C)NC(=O)[C@@H]2C[C@@H](O)CN2C(=O)[C@@H](c2cc(N3CCN(CCN4CCC(O[C@H]5C[C@H](Oc6cc(N7C8CCC7CN(c7cc(-c9ccccc9O)nnc7N)C8)ccn6)C5)CC4)CC3)no2)C(C)C)cc1 [compound 144, (2S,4R)-1-((2R)-2-(3-(4-(2-(4-((1r,3r)-3-((4-(3-(3-amino-6-(2-hydroxyphenyl)pyridazin-4-yl)-3,8-diazabicyclo[3.2.1]octan-8-yl)pyridin-2-yl)oxy)cyclobutoxy)piperidin-1-yl)ethyl)piperazin-1-yl)isoxazol-5-yl)-3-methylbutanoyl)-4-hydroxy-N-((S)-1-(4-(4-methylthiazol-5-yl)phenyl)ethyl)pyrrolidine-2-carboxamide] | < 2.5 | > 75 | 
7 | Cc1ncsc1-c1ccc([C@H](C)NC(=O)[C@@H]2C[C@@H](O)CN2C(=O)[C@H](c2cc(OCCOc3ccc(C(C)n4cc(-c5cc(-c6ccccc6O)nnc5N)cn4)cc3)no2)C(C)C)cc1 (stereo partly drawn) [compound 156, (2S,4R)-1-((2S)-2-(3-(2-(4-(1-(4-(3-amino-6-(2-hydroxyphenyl)pyridazin-4-yl)-1H-pyrazol-1-yl)ethyl)phenoxy)ethoxy)isoxazol-5-yl)-3-methylbutanoyl)-4-hydroxy-N-((S)-1-(4-(4-methylthiazol-5-yl)phenyl)ethyl)pyrrolidine-2-carboxamide] | > 30 |  | > 75
8 | Cc1ncsc1-c1ccc([C@H](C)NC(=O)[C@@H]2C[C@@H](O)CN2C(=O)[C@H](c2cc(OCCn3cc(C(C)n4cc(-c5cc(-c6ccccc6O)nnc5N)cn4)ccc3=O)no2)C(C)C)cc1 (stereo partly drawn) [compound 157, (2S,4R)-1-((2S)-2-(3-(2-(5-(1-(4-(3-amino-6-(2-hydroxyphenyl)pyridazin-4-yl)-1H-pyrazol-1-yl)ethyl)-2-oxopyridin-1(2H)-yl)ethoxy)isoxazol-5-yl)-3-methylbutanoyl)-4-hydroxy-N-((S)-1-(4-(4-methylthiazol-5-yl)phenyl)ethyl)pyrrolidine-2-carboxamide] | 10 to 30 |  | > 75
9 | Cc1ncsc1-c1ccc([C@H](CO)NC(=O)[C@@H]2C[C@@H](O)CN2C(=O)[C@H](c2cc(OCCN3CCN(CCOc4cc(N5C6CCC5CN(c5cc(-c7ccccc7O)nnc5N)C6)ccn4)CC3)no2)C(C)C)cc1 [compound 158, (2S,4R)-1-((2S)-2-(3-(2-(4-(2-((4-(3-(3-amino-6-(2-hydroxyphenyl)pyridazin-4-yl)-3,8-diazabicyclo[3.2.1]octan-8-yl)pyridin-2-yl)oxy)ethyl)piperazin-1-yl)ethoxy)isoxazol-5-yl)-3-methylbutanoyl)-4-hydroxy-N-((R)-2-hydroxy-1-(4-(4-methylthiazol-5-yl)phenyl)ethyl)pyrrolidine-2-carboxamide] | > 30 |  | > 75
10 | CC(C)[C@H](C(=O)N1C[C@H](O)C[C@H]1C(=O)N[C@@H](C)c1ccc(-c2nccn2C)cc1)c1cc(OCCN2CCN(CCOc3cc(N4C5CCC4CN(c4cc(-c6ccccc6O)nnc4N)C5)ccn3)CC2)no1 [compound 159, (2S,4R)-1-((2S)-2-(3-(2-(4-(2-((4-(3-(3-amino-6-(2-hydroxyphenyl)pyridazin-4-yl)-3,8-diazabicyclo[3.2.1]octan-8-yl)pyridin-2-yl)oxy)ethyl)piperazin-1-yl)ethoxy)isoxazol-5-yl)-3-methylbutanoyl)-4-hydroxy-N-((S)-1-(4-(1-methyl-1H-imidazol-2-yl)phenyl)ethyl)pyrrolidine-2-carboxamide] | > 30 |  | < 50
11 | Cc1ncsc1-c1ccc([C@H](C)NC(=O)[C@@H]2C[C@@H](O)CN2C(=O)[C@H](c2cc(OCCN3CCN(CCOc4cc(N5C6CCC5CN(c5cc(-c7ccccc7O)nnc5N)C6)ccn4)CC3)no2)C(C)C)cn1 [compound 160, (2S,4R)-1-((2S)-2-(3-(2-(4-(2-((4-(3-(3-amino-6-(2-hydroxyphenyl)pyridazin-4-yl)-3,8-diazabicyclo[3.2.1]octan-8-yl)pyridin-2-yl)oxy)ethyl)piperazin-1-yl)ethoxy)isoxazol-5-yl)-3-methylbutanoyl)-4-hydroxy-N-((S)-1-(6-(4-methylthiazol-5-yl)pyridin-3-yl)ethyl)pyrrolidine-2-carboxamide] | > 30 |  | > 75
12 | Cc1ncoc1-c1ccc([C@H](C)NC(=O)[C@@H]2C[C@@H](O)CN2C(=O)[C@H](c2cc(OCCN3CCN(CCOc4cc(N5C6CCC5CN(c5cc(-c7ccccc7O)nnc5N)C6)ccn4)CC3)no2)C(C)C)cn1 [compound 161, (2S,4R)-1-((2S)-2-(3-(2-(4-(2-((4-(3-(3-amino-6-(2-hydroxyphenyl)pyridazin-4-yl)-3,8-diazabicyclo[3.2.1]octan-8-yl)pyridin-2-yl)oxy)ethyl)piperazin-1-yl)ethoxy)isoxazol-5-yl)-3-methylbutanoyl)-4-hydroxy-N-((S)-1-(6-(4-methyloxazol-5-yl)pyridin-3-yl)ethyl)pyrrolidine-2-carboxamide] | > 30 |  | < 50
13 | Cc1ncsc1-c1ccc([C@H](C)NC(=O)[C@@H]2C[C@@H](O)CN2C(=O)[C@H](c2cc(OCCOc3ccc(C(C)n4cc(-c5cc(-c6ccccc6O)nnc5N)cn4)cn3)no2)C(C)C)cc1 (stereo partly drawn) [compound 163, (2S,4R)-1-((2S)-2-(3-(2-((5-(1-(4-(3-amino-6-(2-hydroxyphenyl)pyridazin-4-yl)-1H-pyrazol-1-yl)ethyl)pyridin-2-yl)oxy)ethoxy)isoxazol-5-yl)-3-methylbutanoyl)-4-hydroxy-N-((S)-1-(4-(4-methylthiazol-5-yl)phenyl)ethyl)pyrrolidine-2-carboxamide] | < 2.5 |  | > 75
